Source: patent publication US20100222360A1, “Treatment of Malignant Peripheral Nerve Sheath Tumors” (priority 2008, published 2010)

System: MPNST cell line, YST-1
Experiment: Proliferation of the MPNST cell line YST-1
Type: cell-based

Question: Which “effect on the suppression of cell proliferation effected by Imatinib” value (SP600125 in combination with Imatinib, YST-1 cells) does the source give for `O=C1c2ccccc2-c2n[nH]c3cccc1c23` [SP600125] here?
Answer: The value was “reinforces the suppression of cell proliferation”.

Question: And the “suppression of proliferation of the MPNST cell line YST-1” value (single agent, concentration-dependent manner)?
Answer: The value was “suppresses the proliferation”.
